Measured values as given in US11702429B2, “mTORC modulators and uses thereof” (Aeovian Pharmaceuticals, Inc., priority 2019, dated 2023).
Like-named read-outs stand apart in the source and are kept apart here.

Assays:
mTORC1 = target: T1, mTORC1 (Homo sapiens, UniProt P42345+P62942); experiment: Inhibition assay for mTORC1: phosphorylation of pS6K at Thr389, AlphaLISA in PC3 cells; format: cell-based; conditions: for IC50: read-out: pIC50 mTORC1 (converted)
T1 construct: endogenous in cells; host or cells: PC3 cells (human prostate adenocarcinoma)
Procedure: (§1) The IC50s of the inhibition of mTORC1 and mTORC2 were determined in vitro by determining the phosphorylation of pS6K at position Thr389 (mTORC1 inhibition) and pAkt at Ser473 (mTORC2 inhibition). In vitro studies were performed with AlphaLISA® technology using PC3 cells (Prostate Adenocarcinoma; Human (Homo sapiens)). The cells were seeded in 96 well plates and were treated for 24 hours with the different compounds. […] All analysis were performed using GraphPad Prism 7.0 (GraphPad Software, San Diego, USA).

mTORC2 = target: T2, mTORC2 (Homo sapiens, UniProt P42345+P62942); experiment: Inhibition assay for mTORC2: phosphorylation of pAkt at Ser473, AlphaLISA in PC3 cells; format: cell-based; conditions: for IC50: read-out: pIC50 mTORC2 (converted)
T2 construct: endogenous in cells; host or cells: PC3 cells (human prostate adenocarcinoma)
T2 sequence (P62942 2-108 limits assumed, other chains not shown): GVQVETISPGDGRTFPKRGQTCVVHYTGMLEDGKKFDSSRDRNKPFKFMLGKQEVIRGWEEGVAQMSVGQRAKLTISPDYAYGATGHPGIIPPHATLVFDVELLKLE
Procedure: as §1

[1] = PC3 cells, treated 24 hours, pS6K Thr389, AlphaLISA, C16 diastereomer mixtures not separated
[2] = PC3 cells, treated 24 hours, pAkt Ser473, AlphaLISA, C16 diastereomer mixtures not separated

Row | SMILES | IC50 (mTORC1; [1]) [nM] | IC50 (mTORC2; [2]) [nM] | IC50 (mTORC1) [nM] | IC50 (mTORC2) [nM] | also measured
1 | COCCOC1C[C@@H]2CC[C@@H](C)[C@@](O)(O2)C(=O)C(=O)N2CCCC[C@H]2C(=O)O[C@H]([C@H](C)C[C@@H]2CC[C@@H](OCCCN3CCC(C(C)(C)O)CC3)[C@H](OC)C2)CC(=O)[C@H](C)/C=C(\C)[C@@H](O)[C@@H](OC)C(=O)[C@H](C)C[C@H](C)/C=C/C=C/C=C/1C (mixture of isomers) [Compound 74] | < 0.316 | 1000 to 10000 | – | – | –
2 | COCCOC1CC2CCC(C)C(O)(O2)C(=O)C(=O)N2CCCCC2C(=O)OC(C(C)CC2CCC(OCCCN3CCOCC3C)C(OC)C2)CC(=O)C(C)C=C(C)C(O)C(OC)C(=O)C(C)CC(C)C=CC=CC=C1C (mixture of isomers) [Compound 42] | < 0.316 | 1000 to 10000 | – | – | –
3 | COCCCO[C@@H]1CC[C@@H](C[C@@H](C)[C@@H]2CC(=O)[C@H](C)/C=C(\C)[C@@H](O)[C@@H](OC)C(=O)[C@H](C)C[C@H](C)/C=C/C=C/C=C(\C)C(OCCOC)C[C@@H]3CC[C@@H](C)[C@@](O)(O3)C(=O)C(=O)N3CCCCC3C(=O)O2)C[C@H]1OC (some centres unmarked) [Compound 14] | – | – | – | – | pIC50 mTORC1 (mTORC1; [1]): A (pIC50 for mTORC1 of >9.5 as A); pIC50 mTORC2 (mTORC2; [2]): A (PIC50 for mTORC2 of <5 as A)
4 | CO[C@@H]1C[C@H](C[C@@H](C)[C@@H]2CC(=O)[C@H](C)/C=C(\C)[C@@H](O)[C@@H](OC)C(=O)[C@H](C)C[C@H](C)/C=C/C=C/C=C(\C)C(OCCO)C[C@@H]3CC[C@@H](C)[C@@](O)(O3)C(=O)C(=O)N3CCCC[C@H]3C(=O)O2)CC[C@H]1OCCN1CCCCC1 (mixture of isomers) [Compound 61] | 0.316 to 3.16 | > 10000 | – | – | –
5 | COC1C[C@@H]2CC[C@@H](C)[C@@](O)(O2)C(=O)C(=O)N2CCCCC2C(=O)O[C@H]([C@H](C)C[C@@H]2CC[C@@H](OCCO)[C@H](OC)C2)CC(=O)[C@H](C)/C=C(\C)[C@@H](O)[C@@H](OC)C(=O)[C@H](C)C[C@H](C)/C=C/C=C/C=C/1C (some centres unmarked) [Compound 306] | – | – | < 0.316 | < 1000 | –
6 | CO[C@@H]1C[C@H](C[C@@H](C)[C@@H]2CC(=O)[C@H](C)/C=C(\C)[C@@H](O)[C@@H](OC)C(=O)[C@H](C)C[C@H](C)/C=C/C=C/C=C(\C)C(OCCO)C[C@@H]3CC[C@@H](C)[C@@](O)(O3)C(=O)C(=O)N3CCCCC3C(=O)O2)CC[C@H]1OC(=O)NCCO (some centres unmarked) [Compound 64] | – | – | – | – | pIC50 mTORC1 (mTORC1; [1]): B (8.5 to 9.5 as B); pIC50 mTORC2 (mTORC2; [2]): A (PIC50 for mTORC2 of <5 as A)
7 | COC1CC(CC(C)C2CC(=O)C(C)C=C(C)C(O)C(OC)C(=O)C(C)CC(C)C=CC=CC=C(C)C(OCCO)CC3CCC(C)C(O)(O3)C(=O)C(=O)N3CCCCC3C(=O)O2)CCC1OCCCN1CCOCC1C (mixture of isomers) [Compound 2] | – | – | – | – | pIC50 mTORC1 (mTORC1; [1]): A (pIC50 for mTORC1 of >9.5 as A); pIC50 mTORC2 (mTORC2; [2]): A (PIC50 for mTORC2 of <5 as A)
8 | CO[C@@H]1C[C@H](C[C@@H](C)[C@@H]2CC(=O)[C@H](C)/C=C(\C)[C@@H](O)[C@@H](OC)C(=O)[C@H](C)C[C@H](C)/C=C/C=C/C=C(\C)C(SC(C)C)C[C@@H]3CC[C@@H](C)[C@@](O)(O3)C(=O)C(=O)N3CCCCC3C(=O)O2)CC[C@H]1O (some centres unmarked) [Compound 201] | – | – | > 3.16 | 1000 to 10000 | –
9 | COCCOC1C[C@@H]2CC[C@@H](C)[C@@](O)(O2)C(=O)C(=O)N2CCCC[C@H]2C(=O)O[C@H]([C@H](C)C[C@@H]2CC[C@@H](OCCCN3CC4(COC4)C3)[C@H](OC)C2)CC(=O)[C@H](C)/C=C(\C)[C@@H](O)[C@@H](OC)C(=O)[C@H](C)C[C@H](C)/C=C/C=C/C=C/1C (mixture of isomers) [Compound 26] | < 0.316 | > 10000 | – | – | –
10 | COCCOC1C[C@@H]2CC[C@@H](C)[C@@](O)(O2)C(=O)C(=O)N2CCCC[C@H]2C(=O)O[C@H]([C@H](C)C[C@@H]2CC[C@@H](OCCN3CC4(COC4)C3)[C@H](OC)C2)CC(=O)[C@H](C)/C=C(\C)[C@@H](O)[C@@H](OC)C(=O)[C@H](C)C[C@H](C)/C=C/C=C/C=C/1C (mixture of isomers) [Compound 44] | < 0.316 | 1000 to 10000 | – | – | –
11 | CO[C@@H]1C[C@H](C[C@@H](C)[C@@H]2CC(=O)[C@H](C)/C=C(\C)[C@@H](O)[C@@H](OC)C(=O)[C@H](C)C[C@H](C)/C=C/C=C/C=C(\C)C(OCCCCO)C[C@@H]3CC[C@@H](C)[C@@](O)(O3)C(=O)C(=O)N3CCCC[C@H]3C(=O)O2)CC[C@H]1OCCCN1CCOCC1 (mixture of isomers) [Compound 27] | < 0.316 | 1000 to 10000 | – | – | –

Further lines, with some results ahead:

Row | IC50 (mTORC1; [1]) [nM] | IC50 (mTORC2; [2]) [nM] | IC50 (mTORC1) [nM] | IC50 (mTORC2) [nM] | SMILES | also measured
12 | 0.316 to 3.16 | > 10000 | – | – | CO[C@@H]1C[C@H](C[C@@H](C)[C@@H]2CC(=O)[C@H](C)/C=C(\C)[C@@H](O)[C@@H](OC)C(=O)[C@H](C)C[C@H](C)/C=C/C=C/C=C(\C)C(OCCCO)C[C@@H]3CC[C@@H](C)[C@@](O)(O3)C(=O)C(=O)N3CCCC[C@H]3C(=O)O2)CC[C@H]1OCCCc1ccccc1 (mixture of isomers) [Compound 67, (1R,9S,12SR,15R,16E,18R,19R,21R,23S,24E,26E,28E,32SR,35R)-1,18-dihydroxy-30-(3-hydroxypropoxy)-19-methoxy-12-[(1R)-2-[(1S,3R,4R)-3-methoxy-4-(3-phenylpropoxy)cyclohexyl]-1-methyl-ethyl]-15,17,21,23,29,35-hexamethyl-11,36-dioxa-4-azatricyclo[30.3.1.0^4,9]hexatriaconta-16,24,26,28-tetraene-2,3,10,14,20-pentone] | –
13 | – | – | > 3.16 | 1000 to 10000 | COC1C[C@@H]2CC[C@@H](C)[C@@](O)(O2)C(=O)C(=O)N2CCCCC2C(=O)O[C@H]([C@H](C)C[C@@H]2CC[C@@H](OC(=O)NCCCN3CCCCC3)[C@H](OC)C2)CC(=O)[C@H](C)/C=C(\C)[C@@H](O)[C@@H](OC)C(=O)[C@H](C)C[C@H](C)/C=C/C=C/C=C/1C (some centres unmarked) [Compound 366] | –
14 | – | – | < 0.316 | < 1000 | COC1C[C@@H]2CC[C@@H](C)[C@@](O)(O2)C(=O)C(=O)N2CCCCC2C(=O)O[C@H]([C@H](C)C[C@@H]2CC[C@@H](OCc3ccccc3)[C@H](OC)C2)CC(=O)[C@H](C)/C=C(\C)[C@@H](O)[C@@H](OC)C(=O)[C@H](C)C[C@H](C)/C=C/C=C/C=C/1C (some centres unmarked) [Compound 305] | –
15 | – | – | < 0.316 | < 1000 | COC1C[C@@H]2CC[C@@H](C)[C@@](O)(O2)C(=O)C(=O)N2CCCCC2C(=O)O[C@H]([C@H](C)C[C@@H]2CC[C@@H](OC(=O)N(C)CCCN(C)C)[C@H](OC)C2)CC(=O)[C@H](C)/C=C(\C)[C@@H](O)[C@@H](OC)C(=O)[C@H](C)C[C@H](C)/C=C/C=C/C=C/1C (some centres unmarked) [Compound 321] | –
16 | – | – | 0.316 to 3.16 | > 10000 | CO[C@@H]1C[C@H](C[C@@H](C)[C@@H]2CC(=O)[C@H](C)/C=C(\C)[C@@H](O)[C@@H](OC)C(=O)[C@H](C)C[C@H](C)/C=C/C=C/C=C(\C)C(OC[C@@H](C)O)C[C@@H]3CC[C@@H](C)[C@@](O)(O3)C(=O)C(=O)N3CCCCC3C(=O)O2)CC[C@H]1O (some centres unmarked) [Compound 223] | –
17 | – | – | < 0.316 | < 1000 | COC1C[C@@H]2CC[C@@H](C)[C@@](O)(O2)C(=O)C(=O)N2CCCCC2C(=O)O[C@H]([C@H](C)C[C@@H]2CC[C@@H](OC(=O)NCCc3ccccc3)[C@H](OC)C2)CC(=O)[C@H](C)/C=C(\C)[C@@H](O)[C@@H](OC)C(=O)[C@H](C)C[C@H](C)/C=C/C=C/C=C/1C (some centres unmarked) [Compound 324] | –
18 | – | – | < 0.316 | < 1000 | COC1C[C@@H]2CC[C@@H](C)[C@@](O)(O2)C(=O)C(=O)N2CCCCC2C(=O)O[C@H]([C@H](C)C[C@@H]2CC[C@@H](OCCCN(C)C)[C@H](OC)C2)CC(=O)[C@H](C)/C=C(\C)[C@@H](O)[C@@H](OC)C(=O)[C@H](C)C[C@H](C)/C=C/C=C/C=C/1C (stereo partly drawn) [Compound 363, (1R,9S,12S,15R,16E,18R,19R, 21R,23S,24E,26E,28E,30S,32S,35R)-12-[(1R)-2-[(1S,3R,4R)-4-[3-(dimethylamino)propoxy]-3-methoxy-cyclohexyl]-1-methyl-ethyl]-1,18-dihydroxy-19,30-dimethoxy-15,17,21,23,29,35-hexamethyl-11,36-dioxa-4-azatricyclo[30.3.1.0^4,9]hexatriaconta-16,24,26,28-tetraene-2,3,10,14,20-pentone] | –
19 | – | – | < 0.316 | < 1000 | COC1C[C@@H]2CC[C@@H](C)[C@@](O)(O2)C(=O)C(=O)N2CCCCC2C(=O)O[C@H]([C@H](C)C[C@@H]2CC[C@@H](OC(=O)N(C)CCN3CCCCC3)[C@H](OC)C2)CC(=O)[C@H](C)/C=C(\C)[C@@H](O)[C@@H](OC)C(=O)[C@H](C)C[C@H](C)/C=C/C=C/C=C/1C (some centres unmarked) [Compound 318] | –
20 | – | – | < 0.316 | < 1000 | COC1C[C@@H]2CC[C@@H](C)[C@@](O)(O2)C(=O)C(=O)N2CCCCC2C(=O)O[C@H]([C@H](C)C[C@@H]2CC[C@@H](OC(=O)NCCCN(CCO)CCO)[C@H](OC)C2)CC(=O)[C@H](C)/C=C(\C)[C@@H](O)[C@@H](OC)C(=O)[C@H](C)C[C@H](C)/C=C/C=C/C=C/1C (some centres unmarked) [Compound 358] | –
21 | – | – | < 0.316 | < 1000 | COC1C[C@@H]2CC[C@@H](C)[C@@](O)(O2)C(=O)C(=O)N2CCCCC2C(=O)O[C@H]([C@H](C)C[C@@H]2CC[C@@H](OCCCCN3CCOCC3)[C@H](OC)C2)CC(=O)[C@H](C)/C=C(\C)[C@@H](O)[C@@H](OC)C(=O)[C@H](C)C[C@H](C)/C=C/C=C/C=C/1C (some centres unmarked) [Compound 300] | –
22 | – | – | < 0.316 | < 1000 | COC1C[C@@H]2CC[C@@H](C)[C@@](O)(O2)C(=O)C(=O)N2CCCCC2C(=O)O[C@H]([C@H](C)C[C@@H]2CC[C@@H](OC(=O)NCCCN3CCOCC3)[C@H](OC)C2)CC(=O)[C@H](C)/C=C(\C)[C@@H](O)[C@@H](OC)C(=O)[C@H](C)C[C@H](C)/C=C/C=C/C=C/1C (some centres unmarked) [Compound 344] | –
